Two compounds from patent publication US20250270584A1, “Gene editing to provide insect resistance in crops” (The Regents of the University of California, priority 2022, published 2025) can be followed below.

The structures appear in SMILES notation.

Assay [1] concerns the target T1, GLR3.3 channel (Arabidopsis thaliana, UniProt Q9C8E7).
T1 sequence (Q9C8E7 24-933): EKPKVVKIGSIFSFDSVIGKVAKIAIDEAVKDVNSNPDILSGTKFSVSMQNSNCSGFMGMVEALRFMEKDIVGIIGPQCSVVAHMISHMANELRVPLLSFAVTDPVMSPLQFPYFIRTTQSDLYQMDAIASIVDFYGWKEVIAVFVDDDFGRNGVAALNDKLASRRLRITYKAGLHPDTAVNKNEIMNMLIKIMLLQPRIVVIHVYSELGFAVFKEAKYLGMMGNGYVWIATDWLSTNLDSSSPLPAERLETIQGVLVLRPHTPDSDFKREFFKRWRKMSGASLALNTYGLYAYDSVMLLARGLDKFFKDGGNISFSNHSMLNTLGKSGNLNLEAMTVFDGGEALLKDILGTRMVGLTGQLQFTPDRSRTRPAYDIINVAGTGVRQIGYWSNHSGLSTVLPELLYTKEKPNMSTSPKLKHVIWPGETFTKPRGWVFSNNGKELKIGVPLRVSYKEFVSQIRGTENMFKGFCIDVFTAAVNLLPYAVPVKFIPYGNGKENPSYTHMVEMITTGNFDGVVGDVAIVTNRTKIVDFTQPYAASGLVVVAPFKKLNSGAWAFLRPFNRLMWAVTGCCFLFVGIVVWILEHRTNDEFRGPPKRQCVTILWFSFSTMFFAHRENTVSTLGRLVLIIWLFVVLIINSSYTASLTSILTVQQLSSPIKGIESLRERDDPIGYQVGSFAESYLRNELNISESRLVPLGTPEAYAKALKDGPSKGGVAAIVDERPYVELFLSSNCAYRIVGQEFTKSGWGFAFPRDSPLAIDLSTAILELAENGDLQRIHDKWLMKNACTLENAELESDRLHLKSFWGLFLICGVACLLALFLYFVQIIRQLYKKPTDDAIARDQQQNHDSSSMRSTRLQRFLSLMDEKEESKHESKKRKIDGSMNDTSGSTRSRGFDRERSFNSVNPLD
The assay can be described thus: Whole-cell patch-clamp recording in HEK293 cells expressing GLR3.3. In kind it is cell-based. Further details: expressed in transfected cells; host or cells: COS-7 (Ca2+ imaging) / HEK293 (patch clamp). The conditions noted are these: HEK293 cells expressing GLR3.3 alone, free internal Ca2+ in pipette 1 μM, external Glu. As to the method: The whole-cell patch-clamp recordings were performed on an Axopatch 200B patch-clamp configuration with a Digidata 1550 digitizer (Axon Instruments) as described previously. Clampex 10.7 and Clampfit 10.7 software (Axon Instruments) were used for data acquisition and analysis.
To record Ca^2+ currents across plasma membrane of HEK293 cells, the bath solution contained 100 mM Na-glutamate, 40 mM NaCl, 5 mM KCl, 2 mM MgCl2, 10 mM CaCl2, 10 mM HEPES, and 10 mM glucose (pH 7.5, adjusted with NaOH). The pipette solution with 0 nM free Ca^2+ contained 140 mM CsCl, 5 mM EGTA, and 10 mM HEPES (pH 7.5, adjusted with CsOH), while the pipette solution with 1 μM free Ca^2+ contained 140 mM CsCl, 5 mM EGTA, 4.85 mM CaCl2) and 10 mM HEPES (pH 7.5, adjusted with CsOH). Free Ca^2+ was calculated with Webmaxc Standard software (https://somapp.ucdmc.ucdavis.edu/pharmacology/bers/maxchelator/webmaxc/webmaxcS.htm). A ramp voltage protocol of 2-s duration from −180 mV to +20 mV (holding potential 0 mV) was applied 1 min after achieving a whole-cell configuration, and currents were recorded every 20 s, with 5 repeats in total for each cell. The five current traces were used for statistical analysis to produce average current-voltage curves.
For orientation: In patch-clamp work, channel activity is measured electrically.

Assay [2] addresses T2, OsGLR3.1 (Oryza sativa subsp. japonica, UniProt Q7XP59).
T2 construct: expressed in transfected cells; host or cells: COS-7
T2 sequence (Q7XP59 21-938): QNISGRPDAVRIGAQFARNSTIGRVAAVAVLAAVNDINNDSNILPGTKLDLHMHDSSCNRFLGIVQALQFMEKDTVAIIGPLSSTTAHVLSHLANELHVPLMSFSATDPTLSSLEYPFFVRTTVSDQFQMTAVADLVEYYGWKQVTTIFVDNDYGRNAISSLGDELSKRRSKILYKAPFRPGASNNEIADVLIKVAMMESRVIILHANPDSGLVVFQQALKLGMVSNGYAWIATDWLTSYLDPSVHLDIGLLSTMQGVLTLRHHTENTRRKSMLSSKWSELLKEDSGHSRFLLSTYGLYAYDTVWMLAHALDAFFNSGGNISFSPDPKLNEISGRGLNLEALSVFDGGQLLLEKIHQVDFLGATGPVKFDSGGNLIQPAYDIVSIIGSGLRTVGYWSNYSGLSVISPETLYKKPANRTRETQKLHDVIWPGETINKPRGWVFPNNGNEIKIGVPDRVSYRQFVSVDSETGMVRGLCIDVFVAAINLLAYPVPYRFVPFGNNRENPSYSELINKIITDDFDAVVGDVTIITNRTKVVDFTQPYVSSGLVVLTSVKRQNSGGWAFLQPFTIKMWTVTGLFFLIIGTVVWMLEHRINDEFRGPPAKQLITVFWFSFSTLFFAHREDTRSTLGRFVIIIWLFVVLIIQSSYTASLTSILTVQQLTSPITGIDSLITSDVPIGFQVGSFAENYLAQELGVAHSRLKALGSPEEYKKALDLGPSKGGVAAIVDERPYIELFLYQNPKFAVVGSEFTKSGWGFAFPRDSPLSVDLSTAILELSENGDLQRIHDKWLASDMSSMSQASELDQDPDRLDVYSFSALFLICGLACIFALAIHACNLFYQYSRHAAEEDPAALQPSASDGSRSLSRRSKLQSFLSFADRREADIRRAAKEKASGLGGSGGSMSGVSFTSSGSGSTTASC
The assay can be described thus: Single-cell Ca2+ imaging in COS-7 cells expressing OsGLR3.1. In kind it is cell-based. The conditions noted are these: COS-7 cells expressing OsGLR3.1 alone, external Glu application. As to the method:
(§1) The full-length coding sequences were amplified from cDNA of Arabidopsis (GLR3.1, GLR3.3, and GLR3.6), B. oleracea (BoGLR3.3) or O. sativa (OsGLR3.1). The coding sequences of GLR3.3-CD2 and GLR3.3-T3 were generated through site-directed mutagenesis with GLR3.3 as template. All coding sequences respectively inserted into a dual-promoter vector pBudCE4.1 (Invitrogen) with coding sequence of GCaMP6s for co-expression in […] or COS-7 cells as previously described. Mammalian cells were cultured in DMEM supplemented with 10% FBS in a 5% CO2 incubator at 37° C. under controlled humidity, and transfected using a Lipofectamine 3000 Transfection Reagent kit (Invitrogen).
(§2) COS-7 cells expressing GCaMP6s together with various GLR proteins were monitored by a Zeiss AxioObserver ZI inverted microscope (Ivision 4.5 software) with 2-s intervals under a 20× objective as previously described. The standard solution for Ca^2+ imaging contained 120 mM NaCl, 3 mM KCl, 1 mM MgCl2, 1.2 mM NaHCO3, 10 mM glucose, 10 mM HEPES, pH 7.5. At 60 s after initiation of the imaging procedure, the bath was perfused using a peristaltic pump with the standard solution supplemented with 100 mM glutamate to elicit Ca^2+ entry through active channels.

Assay [3] has as its target T1, GLR3.3 channel. The assay can be described thus: Single-cell Ca2+ imaging in COS-7 cells expressing GLR3.3. The conditions noted are these: COS-7 cells expressing GLR3.3 alone, external Glu application (100 mM glutamate). Set-up: expressed in transfected cells; host or cells: COS-7 (Ca2+ imaging). In kind it is cell-based. As to the method: as §1, §2
Assay [4] deals with BoGLR3.3. The assay can be described thus: Single-cell Ca2+ imaging in COS-7 cells expressing BoGLR3.3. In kind it is cell-based, Brassica oleracea. Conditions: COS-7 cells expressing BoGLR3.3 alone, external Glu application. How it is done: as §1, §2
In assay [5] the target is T3, CaM7 (Arabidopsis thaliana, UniProt P59220).
T3 construct: made in house; host or cells: Escherichia coli BL21 (DE3)
The assay can be described thus: ITC (isothermal titration calorimetry) assay of CBD peptides with 6His-CaM7. The class given is binding. Conditions: ratio of KD values. As to the method: ITC was carried out at 25° C. on a MicroCal iTC200 instrument (GE Healthcare). 250 μM of peptides were titrated against 20 μM of 6His-CaM7 proteins (purified by size-exclusion chromatography using Superdex 200 Increase 10/300 GL, GE Healthcare) in the reaction buffer (25 mM HEPES, 100 mM NaCl, pH 7.5) with addition of 1 mM Ca^2+ or 2 mM EGTA. Titrations were performed by an automated sequence of 20 injections spaced at 150-s intervals to ensure complete equilibration, and raw data were analyzed with Origin software (version 7.0) supplied with the instrument.
On the technique in general: ITC needs no label: the signal is the heat of the interaction.

In the case of `N[C@@H](CCC(=O)O)C(=O)O` [Glu, glutamate], in assay [1], the Glu-induced currents result is recorded as “large inward currents”. Moreover, the “Glu-activated [Ca2+]cyt change” value in assay [2], in assay [3] and in assay [4] was “rapid [Ca^2+]cyt increases” in each case.

Regarding `CC(C)C[C@H](NC(=O)[C@H](CO)NC(=O)[C@H](CC(C)C)NC(=O)[C@H](Cc1ccccc1)NC(=O)[C@H](CCCNC(=N)N)NC(=O)[C@H](CCC(N)=O)NC(=O)[C@H](CC(C)C)NC(=O)[C@H](CCCNC(=N)N)NC(=O)[C@@H](NC(=O)[C@H](CO)NC(=O)[C@H](CC(=O)O)NC(=O)[C@H](Cc1c[nH]cn1)NC(=O)[C@H](CC(N)=O)NC(=O)[C@H](CCC(N)=O)NC(=O)[C@H](CCC(N)=O)NC(=O)[C@H](CCC(N)=O)NC(=O)[C@@H](N)CC(=O)O)[C@@H](C)O)C(=O)O` [mutated CBD peptide], in assay [5], the “CaM binding affinity lower than that of wild type CBD” value is listed as “approximately 10 fold”.
